According to ChEMBL document CHEMBL1201862, “PubChem BioAssay data set” (2004):
Active and inactive are the calls of the source.

Assays:
Large T antigen = Large T antigen (Simian virus 40, UniProt P03070); format: functional, Betapolyomavirus macacae;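 note: Confirmatory-stage PubChem screen for compounds that inhibit SV40 T antigen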
[1] = target: T1, Rac GTPase-activating protein 1 (Homo sapiens, UniProt Q9H0H5); test: blockers of MgcRacGAP-driven Rac1 GTP hydrolysis – biochemical, ADP Hunter fluorescence, primary and confirmatory, confirmation (AID 624330); format: functional
T1 sequence (Q9H0H5 whole entry): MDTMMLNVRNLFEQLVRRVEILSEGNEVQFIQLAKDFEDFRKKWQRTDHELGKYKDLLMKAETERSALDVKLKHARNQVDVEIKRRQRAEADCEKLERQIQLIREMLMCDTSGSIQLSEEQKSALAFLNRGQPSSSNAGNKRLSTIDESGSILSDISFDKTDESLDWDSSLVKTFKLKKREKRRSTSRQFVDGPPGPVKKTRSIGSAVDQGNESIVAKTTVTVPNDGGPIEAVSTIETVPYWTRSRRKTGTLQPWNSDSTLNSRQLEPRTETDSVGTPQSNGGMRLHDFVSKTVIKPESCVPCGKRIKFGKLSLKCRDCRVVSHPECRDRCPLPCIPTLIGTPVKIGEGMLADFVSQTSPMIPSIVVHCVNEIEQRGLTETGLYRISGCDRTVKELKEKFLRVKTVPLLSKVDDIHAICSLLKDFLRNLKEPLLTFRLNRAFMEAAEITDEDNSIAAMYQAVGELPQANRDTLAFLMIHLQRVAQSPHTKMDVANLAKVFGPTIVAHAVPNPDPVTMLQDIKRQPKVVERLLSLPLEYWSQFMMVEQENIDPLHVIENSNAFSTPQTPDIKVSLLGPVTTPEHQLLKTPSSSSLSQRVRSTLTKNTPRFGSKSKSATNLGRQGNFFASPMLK

H9c2 = test: cells; format: functional, cell-based; conditions: Rattus norvegicus, H9c2, Myocardium;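 note: confirmatory concentration-response retest of ultra-high-throughput screening hits for modulation of myocardial damage; cell death induced by hydrogen peroxide oxidative stress; compound pretreatment for 60 min then peroxide exposure for 2 h; potency is for protecting the cells against peroxide damage rather than for killing them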
cells [2] = format: functional
cells [3] = format: functional, cell-based
[4] = target: T2, Heat shock factor protein 1 (Mus musculus, UniProt P38532); test: decrease of HSF1-responsive luciferase luminescence – cell-based, NIH3T3, dose retest, confirmation (AID 2382); format: functional;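 note: NIH3T3 fibroblasts with HSF1-driven luciferase reporter stressed by proteasome inhibitor MG132; luminescence from HSF1-driven luciferase expression after 8 hours of MG132 stress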
T2 sequence (P38532 whole entry): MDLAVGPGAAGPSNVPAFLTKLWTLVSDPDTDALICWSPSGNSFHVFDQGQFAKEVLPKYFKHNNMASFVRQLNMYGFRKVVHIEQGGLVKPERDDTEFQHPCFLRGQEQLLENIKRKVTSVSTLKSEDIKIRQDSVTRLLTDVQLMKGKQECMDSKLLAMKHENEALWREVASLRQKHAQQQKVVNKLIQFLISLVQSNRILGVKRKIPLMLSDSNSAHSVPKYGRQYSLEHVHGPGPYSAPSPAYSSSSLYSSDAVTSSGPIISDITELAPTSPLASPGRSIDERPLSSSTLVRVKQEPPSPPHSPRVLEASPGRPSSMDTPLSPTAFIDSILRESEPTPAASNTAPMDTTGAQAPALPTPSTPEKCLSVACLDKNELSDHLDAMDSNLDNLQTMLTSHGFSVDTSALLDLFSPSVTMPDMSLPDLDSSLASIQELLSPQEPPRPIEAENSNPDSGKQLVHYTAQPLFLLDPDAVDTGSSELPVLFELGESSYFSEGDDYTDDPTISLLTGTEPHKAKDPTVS

cells [5] = format: functional, cell-based; remark: listed apart in the source
BJ [6] = test: cells; format: functional, cell-based; conditions: Homo sapiens
[7] = DRD fibroblast viability loss – cell-based, non-viral oncogenic, luminescence, dose response (AID 1934); format: functional; conditions: Homo sapiens
BJ [8] = test: BJ-TERT-LT-ST fibroblast viability loss – cell-based, RAS-independent, luminescence, dose response (AID 1935); format: functional; conditions: Homo sapiens;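 note: BJ fibroblasts immortalized with TERT plus LT and ST oncogenes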
BJ [9] = test: BJ-TERT fibroblast viability loss – cell-based, RAS-independent, luminescence, dose response (AID 1933); format: functional; conditions: Homo sapiens
Fatty acid synthase = Fatty acid synthase (Homo sapiens, UniProt P49327); test: inhibition of human FAS-TE enzyme activity – biochemical, kinetic fluorescence intensity, dose response (AID 624326); format: functional;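 note: rate of fluorescence rise from hydrolysis of a fluorogenic O-methyl fluorescein ester substrate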
Sequence of Fatty acid synthase (P49327 whole entry): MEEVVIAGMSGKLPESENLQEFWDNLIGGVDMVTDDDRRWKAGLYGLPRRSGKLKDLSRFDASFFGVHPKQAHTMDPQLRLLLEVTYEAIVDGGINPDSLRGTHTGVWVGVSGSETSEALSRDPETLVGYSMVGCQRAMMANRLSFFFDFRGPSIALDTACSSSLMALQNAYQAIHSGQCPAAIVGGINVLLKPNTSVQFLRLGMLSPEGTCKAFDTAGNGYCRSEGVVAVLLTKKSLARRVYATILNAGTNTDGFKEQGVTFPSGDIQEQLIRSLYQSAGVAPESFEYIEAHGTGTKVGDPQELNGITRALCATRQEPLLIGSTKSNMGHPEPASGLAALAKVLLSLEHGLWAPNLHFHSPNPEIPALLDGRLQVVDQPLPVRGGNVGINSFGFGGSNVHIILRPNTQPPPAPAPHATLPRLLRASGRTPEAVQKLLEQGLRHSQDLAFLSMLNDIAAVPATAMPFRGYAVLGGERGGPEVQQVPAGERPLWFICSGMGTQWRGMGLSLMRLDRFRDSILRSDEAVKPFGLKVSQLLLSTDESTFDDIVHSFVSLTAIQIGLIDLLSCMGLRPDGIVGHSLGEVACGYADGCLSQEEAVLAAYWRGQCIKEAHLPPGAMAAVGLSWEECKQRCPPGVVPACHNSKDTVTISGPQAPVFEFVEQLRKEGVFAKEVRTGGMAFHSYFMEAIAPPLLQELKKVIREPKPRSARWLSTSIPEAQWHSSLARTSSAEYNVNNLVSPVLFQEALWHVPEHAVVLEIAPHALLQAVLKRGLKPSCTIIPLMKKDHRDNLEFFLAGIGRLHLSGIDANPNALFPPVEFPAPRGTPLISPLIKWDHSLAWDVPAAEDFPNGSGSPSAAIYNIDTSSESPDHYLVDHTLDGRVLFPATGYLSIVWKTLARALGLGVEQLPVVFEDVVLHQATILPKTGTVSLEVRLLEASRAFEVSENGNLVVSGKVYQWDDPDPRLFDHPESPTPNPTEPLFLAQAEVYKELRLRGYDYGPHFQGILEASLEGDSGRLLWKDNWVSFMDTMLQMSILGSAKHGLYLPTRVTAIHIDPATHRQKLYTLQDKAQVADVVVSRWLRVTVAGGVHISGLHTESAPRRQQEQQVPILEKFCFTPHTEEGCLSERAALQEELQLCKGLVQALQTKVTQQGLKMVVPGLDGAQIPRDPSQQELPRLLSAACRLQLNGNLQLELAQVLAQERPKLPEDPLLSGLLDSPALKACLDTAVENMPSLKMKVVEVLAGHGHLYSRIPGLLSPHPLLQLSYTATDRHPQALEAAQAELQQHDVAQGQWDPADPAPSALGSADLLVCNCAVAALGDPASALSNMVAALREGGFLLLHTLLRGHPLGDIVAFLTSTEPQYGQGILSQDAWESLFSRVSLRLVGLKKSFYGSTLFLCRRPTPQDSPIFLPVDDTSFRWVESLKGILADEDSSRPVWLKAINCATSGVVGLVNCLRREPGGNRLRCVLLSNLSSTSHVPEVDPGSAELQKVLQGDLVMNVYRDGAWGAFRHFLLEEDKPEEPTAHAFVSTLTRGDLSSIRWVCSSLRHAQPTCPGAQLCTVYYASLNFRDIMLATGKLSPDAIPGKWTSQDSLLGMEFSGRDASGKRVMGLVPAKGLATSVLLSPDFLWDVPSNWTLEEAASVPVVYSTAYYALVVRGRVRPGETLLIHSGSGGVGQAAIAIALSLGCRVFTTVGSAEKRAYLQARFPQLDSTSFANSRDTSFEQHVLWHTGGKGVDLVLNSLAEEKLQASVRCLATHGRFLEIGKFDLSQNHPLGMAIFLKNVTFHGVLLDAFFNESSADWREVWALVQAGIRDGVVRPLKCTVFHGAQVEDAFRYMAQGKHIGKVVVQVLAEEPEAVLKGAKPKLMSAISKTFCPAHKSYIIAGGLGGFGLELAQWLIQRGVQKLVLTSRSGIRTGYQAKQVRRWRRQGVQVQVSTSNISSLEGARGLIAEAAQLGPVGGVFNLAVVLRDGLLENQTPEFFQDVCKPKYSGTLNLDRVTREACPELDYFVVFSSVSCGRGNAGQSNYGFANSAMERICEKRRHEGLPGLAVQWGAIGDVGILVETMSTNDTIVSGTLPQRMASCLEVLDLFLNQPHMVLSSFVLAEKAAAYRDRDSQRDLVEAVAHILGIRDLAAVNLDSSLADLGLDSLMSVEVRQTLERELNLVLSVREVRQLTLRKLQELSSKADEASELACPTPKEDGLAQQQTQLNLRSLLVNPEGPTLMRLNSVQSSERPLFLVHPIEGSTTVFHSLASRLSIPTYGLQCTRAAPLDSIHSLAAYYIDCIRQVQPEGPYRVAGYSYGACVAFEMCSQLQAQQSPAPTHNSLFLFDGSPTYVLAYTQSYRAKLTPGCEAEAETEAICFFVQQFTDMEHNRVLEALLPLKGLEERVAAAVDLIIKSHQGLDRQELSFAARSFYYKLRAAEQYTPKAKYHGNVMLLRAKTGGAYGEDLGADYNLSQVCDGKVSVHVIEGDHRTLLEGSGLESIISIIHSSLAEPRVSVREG

[10] = target: T3, Replicative DNA helicase DnaB (Mycobacterium tuberculosis, UniProt P9WMR3); test: DnaB intein splicing inhibitors, dose response, biochemical, cell-free fluorescence (AID 449749); format: functional
T3 sequence (P9WMR3 whole entry): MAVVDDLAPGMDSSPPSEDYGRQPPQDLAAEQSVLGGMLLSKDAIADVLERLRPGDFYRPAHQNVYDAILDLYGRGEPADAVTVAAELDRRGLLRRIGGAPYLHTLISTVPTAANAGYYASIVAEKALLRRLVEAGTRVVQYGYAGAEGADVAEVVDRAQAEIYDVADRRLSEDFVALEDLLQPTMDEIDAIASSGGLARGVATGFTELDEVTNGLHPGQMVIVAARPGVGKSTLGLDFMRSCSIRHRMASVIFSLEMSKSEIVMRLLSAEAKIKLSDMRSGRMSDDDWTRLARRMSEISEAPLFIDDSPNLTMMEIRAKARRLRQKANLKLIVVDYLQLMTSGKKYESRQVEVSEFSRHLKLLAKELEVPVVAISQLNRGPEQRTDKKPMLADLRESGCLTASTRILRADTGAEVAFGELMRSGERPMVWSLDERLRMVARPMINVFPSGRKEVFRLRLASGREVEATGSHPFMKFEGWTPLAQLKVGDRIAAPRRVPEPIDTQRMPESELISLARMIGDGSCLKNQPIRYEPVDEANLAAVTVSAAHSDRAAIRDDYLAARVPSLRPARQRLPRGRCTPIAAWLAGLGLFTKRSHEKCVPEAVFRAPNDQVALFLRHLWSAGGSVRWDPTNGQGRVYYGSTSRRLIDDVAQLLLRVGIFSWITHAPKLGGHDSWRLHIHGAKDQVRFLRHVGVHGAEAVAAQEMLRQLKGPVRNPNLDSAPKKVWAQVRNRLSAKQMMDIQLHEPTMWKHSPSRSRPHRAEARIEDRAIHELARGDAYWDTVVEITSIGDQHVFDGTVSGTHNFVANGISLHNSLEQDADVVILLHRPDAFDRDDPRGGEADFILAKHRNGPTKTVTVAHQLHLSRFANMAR

Protein RecA = target: T4, Protein RecA (Mycobacterium tuberculosis, UniProt P9WHJ3); test: Fluorescence Cell-Free Homogeneous Dose Retest to Identify Inhibitors of RecA-Intein Splicing Activity. [Related pubchem assays (depositor defined):AID2097, AID2223, AID489010, AID492950]; format: functional
T4 sequence (P9WHJ3 whole entry): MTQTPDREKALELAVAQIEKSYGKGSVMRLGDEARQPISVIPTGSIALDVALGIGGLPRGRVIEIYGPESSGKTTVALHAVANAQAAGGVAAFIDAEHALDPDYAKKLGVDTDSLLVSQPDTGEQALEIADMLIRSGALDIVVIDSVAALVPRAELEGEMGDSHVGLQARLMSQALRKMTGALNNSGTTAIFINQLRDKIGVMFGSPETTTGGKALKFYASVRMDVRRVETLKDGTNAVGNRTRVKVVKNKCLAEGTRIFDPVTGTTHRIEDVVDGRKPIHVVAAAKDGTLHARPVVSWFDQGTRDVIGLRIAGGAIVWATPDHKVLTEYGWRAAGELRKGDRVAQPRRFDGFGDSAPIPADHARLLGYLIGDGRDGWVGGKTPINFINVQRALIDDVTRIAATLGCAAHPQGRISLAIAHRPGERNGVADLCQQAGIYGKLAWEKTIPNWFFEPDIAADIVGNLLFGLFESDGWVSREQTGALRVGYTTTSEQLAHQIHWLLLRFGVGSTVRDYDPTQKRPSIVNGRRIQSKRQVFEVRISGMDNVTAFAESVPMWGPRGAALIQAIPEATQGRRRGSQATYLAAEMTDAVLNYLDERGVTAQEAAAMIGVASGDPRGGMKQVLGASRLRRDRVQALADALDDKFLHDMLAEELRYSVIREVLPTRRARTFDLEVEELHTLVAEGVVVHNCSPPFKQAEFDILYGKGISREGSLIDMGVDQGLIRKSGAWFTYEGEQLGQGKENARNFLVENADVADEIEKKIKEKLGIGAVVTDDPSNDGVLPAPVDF

[11] = intracellular Trypanosoma cruzi inhibitors in host cells – cell-based, plate reader, cherry-pick samples, set 3, dose response (AID 651818); format: functional;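 note: compounds incubated with infected cells for about four days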
[12] = P. falciparum Dd2 growth inhibitors, dose response, SYBR Green, cherry-picked samples (AID 1159567); format: functional, cell-based
[13] = target: FAD-linked sulfhydryl oxidase ALR (Homo sapiens, UniProt P55789); test: ALR-catalysed DTT oxidation blockers – biochemical, H2O2 detection, luminescence, cherry-pick, dose response (AID 493248)
Sequence of FAD-linked sulfhydryl oxidase ALR (P55789 whole entry): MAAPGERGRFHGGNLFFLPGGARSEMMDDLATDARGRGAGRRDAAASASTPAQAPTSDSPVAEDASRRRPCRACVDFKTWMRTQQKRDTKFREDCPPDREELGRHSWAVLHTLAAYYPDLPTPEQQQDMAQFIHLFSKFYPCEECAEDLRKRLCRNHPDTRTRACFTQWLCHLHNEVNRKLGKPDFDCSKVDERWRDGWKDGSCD

Sequence of Large T antigen (P03070 whole entry): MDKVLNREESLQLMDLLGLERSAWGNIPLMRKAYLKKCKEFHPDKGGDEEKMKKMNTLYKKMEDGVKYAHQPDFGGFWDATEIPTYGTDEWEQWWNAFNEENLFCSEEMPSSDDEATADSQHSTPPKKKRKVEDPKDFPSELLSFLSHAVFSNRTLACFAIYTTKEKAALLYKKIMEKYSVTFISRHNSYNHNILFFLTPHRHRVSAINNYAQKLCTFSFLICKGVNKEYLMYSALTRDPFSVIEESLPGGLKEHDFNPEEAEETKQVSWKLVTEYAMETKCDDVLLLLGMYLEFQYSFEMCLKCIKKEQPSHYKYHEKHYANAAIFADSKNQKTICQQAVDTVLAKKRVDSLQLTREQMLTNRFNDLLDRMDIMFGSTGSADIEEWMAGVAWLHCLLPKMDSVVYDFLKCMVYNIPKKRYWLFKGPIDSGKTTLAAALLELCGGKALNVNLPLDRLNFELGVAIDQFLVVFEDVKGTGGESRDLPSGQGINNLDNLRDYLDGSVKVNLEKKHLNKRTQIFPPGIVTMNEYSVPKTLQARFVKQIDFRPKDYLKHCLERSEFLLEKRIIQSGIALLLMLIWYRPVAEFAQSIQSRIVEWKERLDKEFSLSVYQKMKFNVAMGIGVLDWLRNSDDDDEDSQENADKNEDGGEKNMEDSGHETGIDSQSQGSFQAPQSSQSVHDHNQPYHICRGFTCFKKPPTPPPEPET

O=c1cc(-c2ccc(O)c(O)c2)oc2cc(O)c(C3OC(CO)C(O)C(O)C3O)c(O)c12 (stereo not given)
IC50 (Large T antigen): 5.23 µM (active)
IC50 [1]: 42.9 µM (active)

O=C(NCc1ccco1)c1cc(-c2cccnc2)nc2ccc(Cl)cc12
IC50 (H9c2): > 79 µM (inactive)

COc1ccc(N2C(=O)CC(Sc3n[nH]c(-c4cccc(C)c4)n3)C2=O)cc1 (stereo not given)
IC50 (Large T antigen): 76.5 µM (active)

CCOc1cc(N2CCOCC2)c(OCC)cc1NC(=O)COC(=O)CCOc1ccc(C)cc1
IC50 (Large T antigen): > 100 µM (active)

O=C(NN=C(Cc1ccccc1)Cc1ccccc1)c1ccncc1
IC50 (cells [2]): 0.17 µM (active)

O=C(O)c1ccccc1C(=O)NC1=NN(c2ccccc2)CC1
IC50 (Large T antigen): 14.2 µM (active)

CCCCCn1c(=O)c(C(=O)NCc2ccccn2)c(O)c2ccccc21
IC50 (H9c2): 5.88 µM (active)

C=CCc1c(C)nc2c(-c3ccccc3)cnn2c1N1CCOCC1
EC50 (cells [3]): > 350 µM (not active)
EC50 [4]: > 195 µM (not active)
EC50 (cells [5]): > 350 µM (not active)

COc1ccc(C(C(=O)NC2CCCCC2)N(C(=O)CCl)c2ccccc2Cl)cc1 (stereo not given)
EC50 (BJ [6]): > 150 µM (not active)
EC50 [7]: 4.62 µM (inconclusive)
EC50 (BJ [8]): > 150 µM (not active)
EC50 (BJ [9]): 0.566 µM (inconclusive)

Cc1nc(N2CCN(c3ccccn3)CC2)c2c(C)c(C(=O)Nc3ccc(F)cc3)sc2n1
IC50 (H9c2): > 79 µM (inactive)

COc1cc(C(=O)NCCCNc2nc3cc(C)cc(C)c3cc2C#N)cc(OC)c1OC
IC50 (H9c2): > 79 µM (inactive)

Cc1cc(C)c(S(=O)(=O)N2CCN(C(=O)c3cc(O)nc4ccccc34)CC2)c(C)c1
IC50 (H9c2): > 79 µM (inactive)

CC(C)(C)OC(=O)NCCCC[C@H](NC(=O)c1[nH]cnc1C(=O)NCC(=O)OCc1ccccc1)C(=O)OC(C)(C)C
IC50 (Fatty acid synthase): 0.16 µM (active)

Cc1ccc(NC(=O)COC(=O)C2=COCCO2)c([N+](=O)[O-])c1
IC50 (cells [2]): 3.39 µM (active)

COc1ccc(C(=O)Nc2ccc(O)c3ccccc23)cc1
IC50 (Large T antigen): 30.8 µM (active)
AC50 [10]: 1.22 µM (active)
EC50 (Protein RecA): 0.0744 µM (active)

CCC(Oc1ccccc1)C(=O)Nc1ccccc1C(=O)N1CCCCC1 (stereo not given)
IC50 (H9c2): 23.8 µM (active)

COc1cc(NC(=O)c2ccc(-c3cn[nH]c3)c3ccoc23)cc(OC)c1OC
IC50 (H9c2): > 79 µM (inactive)

C[C@H]1CN([C@@H](C)CO)C(=O)c2cc(NS(=O)(=O)c3ccccc3)ccc2O[C@H]1CN(C)Cc1ccc(Cl)c(Cl)c1
AC50 [11]: 5.12 µM (active)

C[C@@H]1CN([C@H](C)CO)C(=O)Cc2cc(NC(=O)Cc3cn(C)c4ccccc34)ccc2O[C@H]1CN(C)Cc1ccc(Cl)c(Cl)c1
AC50 [11]: 3.78 µM (active)

C[C@H](CO)N1C[C@H](C)[C@H](CN(C)Cc2ccc(C(F)(F)F)cc2)Oc2ccc(NC(=O)Nc3ccc4c(c3)OCO4)cc2CC1=O
AC50 [11]: 5.85 µM (active)

C[C@@H]1CN([C@H](C)CO)C(=O)Cc2cc(NC(=O)Nc3ccc(C(F)(F)F)cc3)ccc2O[C@@H]1CN(C)S(=O)(=O)c1ccc(F)cc1
AC50 [11]: 7.08 µM (active)

C[C@@H]1CN([C@H](C)CO)C(=O)c2cccc(NC(=O)NC3CCCCC3)c2O[C@H]1CN(C)Cc1ccc(C(F)(F)F)cc1
AC50 [11]: 1.86 µM (active)

C[C@@H]1CN([C@H](C)CO)C(=O)Cc2cc(NC(=O)Nc3ccc4c(c3)OCO4)ccc2O[C@@H]1CN(C)Cc1ccc(Cl)c(Cl)c1
AC50 [11]: 3.71 µM (active)

C[C@H](CO)N1C[C@H](C)[C@H](CN(C)CC2CCCCC2)Oc2c(NC(=O)c3nc4ccccc4s3)cccc2C1=O
AC50 [11]: 3.31 µM (active)

C[C@@H]1CN([C@@H](C)CO)C(=O)Cc2cc(NC(=O)Nc3ccc(C(F)(F)F)cc3)ccc2O[C@@H]1CN(C)S(=O)(=O)c1ccccc1
AC50 [11]: 3.88 µM (active)

COc1cccc(C(C[N+](=O)[O-])c2c(C)[nH]n(-c3ccccc3)c2=O)c1 (stereo not given)
EC50 (cells [3]): > 350 µM (not active)
AC50 [10]: 16.5 µM (active)
EC50 (cells [5]): > 350 µM (not active)
EC50 (Protein RecA): 2.25 µM (active)

CO[C@@H]1CN(C)C(=O)c2ccc(NC(=O)Nc3ccc(F)cc3)cc2OC[C@@H](C)N(C(=O)c2ccc(F)cc2)C[C@H]1C
AC50 [12]: 8.03 µM (active)

CCN(CC)S(=O)(=O)c1ccc(N/N=C/c2ccc(O)cc2)nc1
IC50 (Large T antigen): 11.5 µM (active)
IC50 [1]: 31.5 µM (active)

COc1cc(/C=N\NC(=O)CNC(=O)c2cccc([N+](=O)[O-])c2)ccc1O
IC50 (Large T antigen): 3.75 µM (active)
AC50 [13]: 2.41 µM (active)
IC50 [1]: 16.5 µM (active)

O=C(Nc1ccc(F)cc1)N1CC(=O)N2[C@H](C1)[C@@H](c1ccc(C#Cc3ccc(F)cc3)cc1)[C@@H]2CO
AC50 [12]: 4.49 µM (active)

CO[C@H]1CN(C)C(=O)c2ccc(NS(=O)(=O)CC(F)(F)F)cc2OC[C@@H](C)N(Cc2nccs2)C[C@H]1C
AC50 [12]: > 39 µM (inactive)
